# In patent US20030180947A1, “Circadian control of stem/progenitor cell self-renewal and differentiation and of clock controlled gene expression” (priority 2001, published 2003):
# Entries after “also recorded” stand apart in the source; their conditions may differ.
# Experiments:
# [1] = test system: mPer1 expression in the lin− cells; test: Effect on mPer1 expression in lin− bone marrow cells (relative quantitative RT-PCR); type: cell-based, mouse; conditions: 200 nM dexamethasone or 1 μM PMA, 1 or 2 hours, vs ethanol control
# Experimental: (§1) Bone marrow cells were incubated with ACK lysing buffer (0.15M NH4Cl, 1 mM KHCO3 and 0.1 mM Na2EDTA; pH7.2) at room temperature for 4 minutes to remove red blood cells. The lin^− (lineage marker-negative) bone marrow cells were obtained by depleting lineage marker-positive cells using the MACS magnetic separation system (Miltenyi Biotec, Auburn, Calif.) according to the manufacturer's instructions. The antibodies used were PE-labeled rat anti-mouse Gr-1, TER119, B220, CD4, CD8, and Mac-1 monoclonal antibodies (all from BD PharMingen, San Diego, Calif.). Briefly, the cells were incubated with the antibody cocktail for the lineage markers described above at 6-10° C. for 15 minutes. After two washes with 1×phosphate-buffered saline (PBS; Sigma, St. Louis, Mo.) supplemented with 0.5% FBS (Hyclone), the cells were incubated with anti-PE antibody-coated magnetic beads (Miltenyi Biotec) at 6-10° C. for 15 minutes. […]
# (§2) For each RT-PCR experiment, samples from six time points were analyzed at the same time. […]
# (§3) Within each PCR experiment, the linear range of amplification was first determined using cDNA pooled from 6 time points. […]
# (§4) As a negative control, the products of the RT reactions, without reverse transcriptase, were subjected to the same PCR amplification. […] Their relative quantities were determined by using the Image-Pro Plus software (Media Cybernetics). […]
# [2] = test system: mPer2 expression in the lin− cells; test: Effect on mPer2 expression in lin− bone marrow cells (relative quantitative RT-PCR); type: cell-based, mouse; conditions: 200 nM dexamethasone or 1 μM PMA, 1 or 2 hours, vs ethanol control
# Experimental: as §1, §2, §3, §4
# Rat-1 fibroblasts = conditions: cultured Rat-1 fibroblasts; Balsalobre et al. 2000; cited from earlier work
# mper1 promoter = test: Per1-luciferase reporter (pGL3-mPer1-7.2 kb) in transfected NIH 3T3 cells; type: cell-based, mouse; conditions: NIH 3T3, pGL3-mPer1-7.2 kb; 10^−6 M; 7 hours; FIG. 14
# Description: FIG. 14 is a bar graph illustrating the effects of neurotransmitter analog treatment on NIH 3T3 cells transfected with pGL3-mPer1-7.2kb, which contains luciferase under control of a 7.2 kb region of the mper1 promoter. Cells were exposed to 10^−6 M forskolin as a positive control, 10^−6 M isoproterenol (a beta-adrenergic agonist), 10^−6 M propranolol (a beta-adrenergic antagonist), 10^−6 M phenylephrine (an alpha-adrenergic agonist), and 10^−6 M pentolamine (an alpha-adrenergic antagonist) for 7 hours.
# H1299 cells were maintained in RPMI1640 (Gibco) with 10% FBS (Hyclone). NIH3T3 cells were maintained in DMEM (Gibco) with 10% FBS (Hyclone). The day before transfection, 3×10^5 cells/well were plated onto six-well plates. Cells were transfected with 500 ng of each expression plasmid, 100 ng of the firefly luciferase reporter construct and 2 ng of the Renilla luciferase control plasmid (pRL-SV40; Promega) using SuperFect transfection reagent (Qiagen) following the manufacturer's instructions. The Renilla luciferase control plasmid was cotrasfected to normalize transfection efficiency. When expression plasmids were omitted, same amount of the pcDNA3 plasmid was used to substitute the expression plasmids. Forty hours after transfection, cells were washed once with 1×PBS (Sigma) and lysed with 500 μl of passive lysis buffer (Promega). Luciferase activity of the cell lysate was assayed with the Dual-Luciferase Reporter Assay System (Promega) using a luminometer (Optocomp1; MGM Instruments) as recommended by the manufacturer.
# A Per1-luciferase reporter plasmid was constructed essentially as described above, using a 7.2 kb fragment of the promoter region from mper1, forming pGL3-mPer1-7.2 kb. NIH 3T3 cells were transfected with pGL3-mPer1-7.2 kb as described above and cells were exposed to 10^−6 M forskolin as a positive control, 10^−6 M isoproterenol (a beta-adrenergic agonist), 10^−6 M propranolol (a beta-adrenergic antogonist), 10^−6 M phenylephrine (an alpha-adrenergic agonist), and 10^−6 M pentolamine (an alpha-adrenergic antagonist). Cells were exposed to the neurotransmitters for 7 hours and luciferase activity was measured as described above.
# [3] = molecular target: T1, mLATS2 fused to the GAL4 DNA binding domain (pGBKT7-mLATS2) (mouse, UniProt P04386 1-147; Q7TSJ6 1-1042); test: yeast two-hybrid assay
# T1 construct: Yeast two-hybrid construct made by inserting the Bsm I-Xho I fragment of pcDNA3-mLATS2 into pGBKT7-mLATS2b; also called mLATS2/2b
Molecule,expression levels relative to the forskolin positive control (mper1 promoter),luciferase activity relative to control (mper1 promoter),also measured
"CCCCCCCCCCCCCC(=O)O[C@@H]1[C@@H](C)[C@@]2(O)[C@@H](C=C(CO)C[C@]3(O)C(=O)C(C)=C[C@@H]23)[C@@H]2C(C)(C)[C@]12OC(C)=O [PMA, phorbol-12-myristate-13-acetate]",,,mPer1 expression [1]: not affected; mPer2 expression [2]: neither dexamethasone nor PMA had a significant effect; Per1 induction and circadian gene expression (Rat-1 fibroblasts): induce mPer1 expression and elicit circadian gene expression; also recorded: induce immediate Per1 up-regulation and trigger circadian expression
CC(C)NCC(O)c1ccc(O)c(O)c1 (stereo not shown) [isoproterenol],slightly diminished,increased luciferase activity,
Cc1ccc(N(CC2=NCCN2)c2cccc(O)c2)cc1 [pentolamine],slightly diminished,increased luciferase activity,
CNC[C@H](O)c1cccc(O)c1 [phenylephrine],slightly diminished,increased luciferase activity,
"mRBT1C76 fused to the GAL4 activation domain (pGADT7-mRBT1C76) (other, UniProt P04386 768-881, looked up, Yeast two-hybrid construct; also called C-terminal 76 amino acids of mRBT1) ANFNQSGNIADSSLSFTFTNSSNGPNLITTQTNSQALSQPIASSNVHDNFMNNEITASKIDDGNNSKPLSPGWTDQTAYNAFGITTGMFNTTTMDDVYNYLFDDEDTPPNPKKEPQNEIVSQADPVFLEALSSRYLGDSGLDDFFLDIDTSAVEKDVALPPPEPPHSLFCSPGSWEWNELDHIMEIILGS",,,binding result [3]: no binding
